Experimental data: US10463644B2, “Uses of sesquiterpene lactone compounds and their derivatives in drugs preparation” (ACCENDATECH, priority 2013, dated 2019)
Where two headings read alike, the source gives them in different places.

Tests used:
cancer cells = assay: Survival rate of cancer cells after test compound is added (flow cytometry, Annexin V-FITC/PI, clinical specimen); type: cell-based, patient; conditions: Homo sapiens, 18 h, read-out: Survival rate (%) All cells (Stem cells and ordinary cells)
In short: (§1)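 Steps: density-gradient isolation of mononuclear cells from fresh or cryopreserved clinical samples; 18-hour compound exposure at 1×10^6 cells/mL; staining for stem-cell surface markers, then Annexin V-FITC and PI; flow cytometric apoptosis analysis.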

[1] = tested on: PGE2 secreted by synoviocyte; assay: Content of PGE2 in culture supernatant of synoviocyte of RA model rats given test compound; type: in vivo; conditions: rat RA model, dose 30 mg/kg.2d; normal control 8.34 ± 1.29, NaCl 32.44 ± 10.32
In short: (§2)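 Rat RA model; dosing 30 mg/kg.2d; normal and NaCl control groups. Synoviocyte culture supernatant collected; TNF-α and PGE2 measured by one established method, IL-1β by a separate method.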

normal cells = assay: Survival rate of normal cells after test compound is added (flow cytometry, Annexin V-FITC/PI); type: cell-based; conditions: 18 h
In short: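 Ficoll-isolated mononuclear cells from patient specimens (e.g. AML) in serum-free IMDM at 1×10^6/mL were exposed to compound for 18 hours. Cells were stained for stem-cell markers (CD34+CD38+ for AML) plus Annexin V-FITC/PI, and apoptosis was read by flow cytometry within one hour.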

cancer stem cells = assay: Survival rate of cancer stem cells after test compound is added (flow cytometry, Annexin V-FITC/PI, clinical specimen); type: cell-based, patient; conditions: Homo sapiens, 18 h
In short: as §1

[2] = tested on: IL-1β secreted by synoviocyte; assay: Content of IL-1β in culture supernatant of synoviocyte of RA model rats given test compound; type: in vivo; conditions: rat RA model, dose 30 mg/kg.2d; normal control 0.16 ± 0.034, NaCl 0.49 ± 0.136
In short: as §2

[3] = Head and neck squamous cell carcinomas
[4] = read-out: Survival rate (%) All cells (Stem cells and ordinary cells)
[5] = read-out: Survival rate (%) Stem cells

`C=C1C(=O)O[C@@H]2[C@@H]3[C@@H](CC[C@@]3(C)O)[C@](C)(O)CC[C@@H]12` [Compound 49] was tested, and the viability at 10 µM (cancer cells; AML) was 92%, the viability at 20 µM (cancer cells; AML) was 89% and the viability at 10 µM (cancer cells; Brain glioma) was 88%. It also gave a viability at 20 µM (cancer cells; Brain glioma) of 87%, a viability at 10 µM (cancer cells; Brain tumor) of 88% and a viability at 20 µM (cancer cells; Brain tumor) of 87%. It also gave a viability at 10 µM (cancer cells; Breast cancer) of 89%, a viability at 20 µM (cancer cells; Breast cancer) of 87% and a viability at 10 µM (cancer cells; CLL) of 91%. It also gave a viability at 20 µM (cancer cells; CLL) of 85%, a viability at 10 µM (cancer cells; CML) of 90% and a viability at 20 µM (cancer cells; CML) of 86%. The viability at 10 µM (cancer cells; Children hepatoblastoma) was 93%, the viability at 20 µM (cancer cells; Children hepatoblastoma) was 92% and the viability at 10 µM (cancer cells; Colon adenocarcinoma) was 93%. It also gave a viability at 20 µM (cancer cells; Colon adenocarcinoma) of 86%, a viability at 10 µM (cancer cells; Colorectal cancer) of 88% and a viability at 20 µM (cancer cells; Colorectal cancer) of 85%. For the same compound, the viability at 10 µM (cancer cells; Gastric cancer) was 92%, the viability at 20 µM (cancer cells; Gastric cancer) was 89% and the viability at 10 µM (cancer cells; Gastrointestinal tumor) was 92%. It also gave a viability at 20 µM (cancer cells; Gastrointestinal tumor) of 89%, a viability at 10 µM (cancer cells; Glioma) of 88% and a viability at 20 µM (cancer cells; Glioma) of 89%. It also gave a viability at 10 µM (cancer cells; [3]) of 91%, a viability at 20 µM (cancer cells; [3]) of 87% and a viability at 10 µM (cancer cells; Laryngeal cancer) of 91%. The viability at 20 µM (cancer cells; Laryngeal cancer) was 88%, the viability at 10 µM (cancer cells; Liver cancer) was 93% and the viability at 20 µM (cancer cells; Liver cancer) was 86%. For the same compound, the viability at 10 µM (cancer cells; Lung adenocarcinoma) was 91%, the viability at 20 µM (cancer cells; Lung adenocarcinoma) was 88% and the viability at 10 µM (cancer cells; Lung cancer) was 88%. For the same compound, the viability at 20 µM (cancer cells; Lung cancer) was 82%, the viability at 10 µM (cancer cells; Malignant melanoma) was 88% and the viability at 20 µM (cancer cells; Malignant melanoma) was 87%. The viability at 10 µM (cancer cells; Nasopharynx cancer) was 93%, the viability at 20 µM (cancer cells; Nasopharynx cancer) was 86% and the viability at 10 µM (cancer cells; Ovarian cancer) was 93%. For the same compound, the viability at 20 µM (cancer cells; Ovarian cancer) was 88%, the viability at 10 µM (cancer cells; Pancreatic cancer) was 87% and the viability at 20 µM (cancer cells; Pancreatic cancer) was 83%. The viability at 10 µM (cancer cells; Prostate cancer) was 92%, the viability at 20 µM (cancer cells; Prostate cancer) was 89% and the viability at 10 µM (cancer cells; Retinoblastoma) was 92%. The viability at 20 µM (cancer cells; Retinoblastoma) was 89%, the viability at 10 µM (cancer cells; Skin cancer) was 93% and the viability at 20 µM (cancer cells; Skin cancer) was 86%. The “Content of PGE2 in culture supernatant of synoviocyte (x ± s)” value [1] was 24.25 ± 1.94 ng/mL, the viability at 10 µM (normal cells; [4]) was 96% and the viability at 10 µM (normal cells; [5]) was 94%. For the same compound, the viability at 20 µM (normal cells; [4]) was 95%, the viability at 20 µM (normal cells; [5]) was 92% and the viability at 10 µM (cancer stem cells; AML) was 85%. For the same compound, the viability at 20 µM (cancer stem cells; AML) was 77%, the viability at 10 µM (cancer stem cells; Brain glioma) was 83% and the viability at 20 µM (cancer stem cells; Brain glioma) was 79%. It also gave a viability at 10 µM (cancer stem cells; Brain tumor) of 83%, a viability at 20 µM (cancer stem cells; Brain tumor) of 79% and a viability at 10 µM (cancer stem cells; Breast cancer) of 82%. The viability at 20 µM (cancer stem cells; Breast cancer) was 79%, the viability at 10 µM (cancer stem cells; CLL) was 82% and the viability at 20 µM (cancer stem cells; CLL) was 74%. The viability at 10 µM (cancer stem cells; CML) was 87%, the viability at 20 µM (cancer stem cells; CML) was 76% and the viability at 10 µM (cancer stem cells; Children hepatoblastoma) was 86%. The viability at 20 µM (cancer stem cells; Children hepatoblastoma) was 78%, the viability at 10 µM (cancer stem cells; Colon adenocarcinoma) was 85% and the viability at 20 µM (cancer stem cells; Colon adenocarcinoma) was 79%. The viability at 10 µM (cancer stem cells; Colorectal cancer) was 82%, the viability at 20 µM (cancer stem cells; Colorectal cancer) was 74% and the viability at 10 µM (cancer stem cells; Gastric cancer) was 85%. For the same compound, the viability at 20 µM (cancer stem cells; Gastric cancer) was 77%, the viability at 10 µM (cancer stem cells; Gastrointestinal tumor) was 85% and the viability at 20 µM (cancer stem cells; Gastrointestinal tumor) was 77%. It also gave a viability at 10 µM (cancer stem cells; Glioma) of 82%, a viability at 20 µM (cancer stem cells; Glioma) of 76% and a viability at 10 µM (cancer stem cells; [3]) of 82%. It also gave a viability at 20 µM (cancer stem cells; [3]) of 73%, a viability at 10 µM (cancer stem cells; Laryngeal cancer) of 84% and a viability at 20 µM (cancer stem cells; Laryngeal cancer) of 78%. It also gave a viability at 10 µM (cancer stem cells; Liver cancer) of 85%, a viability at 20 µM (cancer stem cells; Liver cancer) of 79% and a viability at 10 µM (cancer stem cells; Lung adenocarcinoma) of 84%. It also gave a viability at 20 µM (cancer stem cells; Lung adenocarcinoma) of 78%, a viability at 10 µM (cancer stem cells; Lung cancer) of 79% and a viability at 20 µM (cancer stem cells; Lung cancer) of 73%. For the same compound, the viability at 10 µM (cancer stem cells; Malignant melanoma) was 82%, the viability at 20 µM (cancer stem cells; Malignant melanoma) was 79% and the viability at 10 µM (cancer stem cells; Nasopharynx cancer) was 84%. The viability at 20 µM (cancer stem cells; Nasopharynx cancer) was 77%, the viability at 10 µM (cancer stem cells; Ovarian cancer) was 86% and the viability at 20 µM (cancer stem cells; Ovarian cancer) was 76%. For the same compound, the viability at 10 µM (cancer stem cells; Pancreatic cancer) was 81%, the viability at 20 µM (cancer stem cells; Pancreatic cancer) was 75% and the viability at 10 µM (cancer stem cells; Prostate cancer) was 85%. The viability at 20 µM (cancer stem cells; Prostate cancer) was 77%, the viability at 10 µM (cancer stem cells; Retinoblastoma) was 85% and the viability at 20 µM (cancer stem cells; Retinoblastoma) was 77%. The viability at 10 µM (cancer stem cells; Skin cancer) was 85%, the viability at 20 µM (cancer stem cells; Skin cancer) was 79% and the “Content of IL-1β in culture supernatant of synoviocyte (x ± s)” value [2] was 0.39 ± 0.075 ng/mL.
